Data reported in US10272036B2, “Composition for oral delivery of bioactive agents” (priority 2013, dated 2019).

B1: ovalbumin (protein, UniProt P01012 2-386, looked up)
Ovalbumin: GSIGAASMEFCFDVFKELKVHHANENIFYCPIAIMSALAMVYLGAKDSTRTQINKVVRFDKLPGFGDSIEAQCGTSVNVHSSLRDILNQITKPNDVYSFSLASRLYAEERYPILPEYLQCVKELYRGGLEPINFQTAADQARELINSWVESQTNGIIRNVLQPSSVDSQTAMVLVNAIVFKGLWEKAFKDEDTQAMPFRVTEQESKPVQMMYQIGLFRVASMASEKMKILELPFASGTMSMLVLLPDEVSGLEQLESIINFEKLTEWTSSNVMEERKIKVYLPRMKMEEKYNLTSVLMAMGITDVFSSSANLSGISSAESLKISQAVHAAHAEINEAGREVVGSAEAGVDAASVSEEFRADHPFLFCIKHIATNAVLFFGRCVSP
notes: Ovalbumin, model vaccine / protein antigen, unprotected or as solution

Key:
Rodents = conditions: cited from earlier work
BALB/C mice [1] = tested on: BALB/C mice
Source text: Experimental Methods: Ten-twelve week old female BALB/C mice are used. Mice are fed ad libitum. Each experimental group is housed in a separate cage.
Three groups of 4 mice are each fed ad libitum as follows: 1) Inventive Warfarin composition, mixed in baits at 4% Warfarin activity, 2) Unencapsulated Warfarin, mixed in baits feed at 4% activity, 3) Bait containing a composition as in Example 3, containing no Warfarin or other bioactive. The feed intake and kill effect on the mice are monitored.

[2] = Degradation of unprotected protein antigen (OVA) activity in simulated gastric juice; assay type: physicochemical; conditions: simulated gastric fluid, 0.08% pepsin, pH-2, 37° C.
Method: Western Blot: the compositions were lysed with RIPA buffer as described above, and a calculated amount equivalent to 12 μg of protein per sample was loaded on a 10% SDS-polyacrylamide gradient gel (SDS-PAGE, Bio-Rad, Hercules, Calif.). Proteins were transferred onto a PVDF membrane (Bio-Rad) and blocked for 1 h with 5% non-fat milk in PBS containing 0.5% Tween-20 (PBS-T). Blots were incubated with an appropriate primary antibody at 1:5000 dilutions for 1 h at room temperature. After washing with PBS-T (3×10 mL, 5 min. each), the membranes were incubated with an appropriate HRP-conjugated secondary antibody (EMD Millipore Corporation, Billerica, Mass., USA) at 1:5000 dilution for 1 h. After washing with PBS-T (3×10 mL, 5 min. each), chemiluminescent films were developed with an ECL substrate (Amsheram Biosciences).
To evaluate the loss of activity of a protein antigen following a typical gastric exposure, non-encapsulated OVA (10 mg) was incubated in 10 ml simulated gastric fluid containing 0.08% pepsin at pH-2 for 2 h at 37° C. on a shaker. Medium was withdrawn at 15 min, 30 min, 60 min and 120 min incubation times, and the amount of residual OVA was analyzed using Western Blot analysis as described above.

BALB/C mice [3] = test: Oral administration of OVA composition to mice, immune response (ELISA IgG/IgA, ASC); assay type: in vivo; conditions: OVA solution subcutaneously (SC), 0 and 3 weeks, read at week 4, expected
Method: Ovalbumin is orally administered to mice to test the efficacy of the inventive compositions in inducing an immune response.
Ovalbumin composition: Ovalbumin (1 mg/g of ovalbumin, Sigma, St. Louis, Mo.,) is incorporated into the inventive composition as described in Example 5. Three groups of 4 mice each are inoculated as follows: 1) ovalbumin (OVA) in the composition, administered orally, 2) OVA solution, administered subcutaneously (SC), 3) antigen free composition administered orally. Mice are inoculated at 0 and 3 weeks. Each dose administers a total 100 mg of dry composition mixed with corn oil at a ratio of 1:2 w/w of dry composition/oil, coated onto feed pellets. At week 4 each mouse is euthanized and serum and spleen cells are harvested.
Immunological assays: Serum is assayed for IgG and IgA by ELISA. ELISA is performed using OVA absorbed to polystyrene plates. Samples are placed in wells in triplicate at a 1:25 dilution for serum. […] Optical density of each well is determined by placing the plate in a microtiter plate spectrophotometer and reading the plate at 490 nm. […]
The OVA specific IgG and IgA antibodies are quantified by determining the increase in optical density over time. […] No OVA specific IgG or IgA antibodies are expected to be detected in mice fed antigen free composition.

[4] = rodents ingesting baits containing Warfarin

Molecule	time to recovery (Rodents; rodents after a sublethal amount of Warfarin) [h]	time to become unconscious (Rodents; [4]) [h]	time to obvious symptoms of poisoning (Rodents; [4]) [min]	kill effect on the mice (BALB/C mice [1]; after 8 h from feeding, expected)	feed intake, less than groups 1 and 3 (BALB/C mice [1]; baits at 4% Warfarin activity, ad libitum)	Remaining activity (%) ([2]; 15 min, relative to pre-exposure activity)	Remaining activity (%) ([2]; 30 min)	Remaining activity (%) ([2]; 60 min)	Remaining activity (%) ([2]; 120 min)	OVA specific serum IgA, IgG and ASC secreting cells (BALB/C mice [3])
CC(=O)CC(c1ccccc1)c1c(O)c2ccccc2oc1=O (stereo not shown) [Warfarin]	≤ 8	1 to 2	15 to 30	all group 2 mice remain alive	over 25%	–	–	–	–	–
B1	–	–	–	–	–	61	55	38	2	equally increased
